Source: patent publication US6147076A, “Analogues of N-acetylardeemin, method of preparation and uses thereof” (priority 1996, dated 2000)
“And” between values parts separate entries of the source, which are not always exact repeats. Equal values may be shown once. Read-outs that look alike come from different tables or passages of the source.

What was measured:
P388 leukemic cells = assay: Drug combination of adriamycin and 5-N-acetyl-ardeemin against P388 cell growth (XTT); settings: Mus musculus, P388, drug alone
Source text: microplate, 15,000 cell/well, N = 2. Platting cells on day 1, add drugs o
day 2 and XTT assay on day 5.

CCRF-CEM cells [1] = assay: Cytotoxicity / growth inhibition of CCRF-CEM leukemic cells; settings: Homo sapiens
CCRF-CEM cells [2] = assay: Intracellular accumulation of [3H]vinblastine in CCRF-CEM cells; type: cell-based, human; settings: 30 μM
Procedure: (§1) *Cells were preloaded with [^3 H]
(§2) times (or without wash) with 100 ml cold medium to remove extracellular
(§3) with or without a reverse prenyl compound or an MDRreversing agent. Cells
(§4) were then separated from radioactive medium by microfuge oillayer method.
(§5) Extracellular space counts carried down # by cells (^3 HInulin space
(§6) were subtracted from the total radioactive counts.

P388/DX leukemic cells = assay: Drug combination of adriamycin and 5-N-acetyl-ardeemin against P388/DX cell growth (XTT); type: cell-based; settings: drug alone
Source text: | microplate, 25,000 cell/well, N = 2.

CCRF-CEM cells [3] = assay: Two drug combination study of vinblastine and 5-N-acetylardeemin on CCRF-CEM, 72 hr, XTT assay; type: cell-based; settings: Homo sapiens, Table 2, drug alone, read-out: Dm (median-effect concentration)
Source text: CCRF-CEM Cell Line at 72-HR Exposure Time. Based on XTT

DC-3F/ADII cells [4] = system: DC-3F/ADII cells
CCRF-CEM/VM-1 cells = assay: Cytotoxicity toward VM-26-resistant CCRF-CEM/VM-1 cells (mutated Topo II gene); type: cell-based, human; settings: Homo sapiens, CCRF-CEM, read-out: IC50 of reversing agent
DC-3F/ADX cells = assay: Cytotoxicity toward DC-3F/ADX cells; type: cell-based, hamster
CCRF-CEM cells [5] = assay: Influx of [3H]VP-16 in CCRF-CEM cells; type: cell-based, human; settings: Homo sapiens, CCRF-CEM, 0.5 h, read-out: increase of VP-16 accumulation
CCRF/VM-1 cells = assay: Intracellular accumulation of VP-16 in CCRF/VM-1 cells; settings: Homo sapiens, 0.5 h, read-out: increase of VP-16 accumulation
DC-3F/ADII cells [6] = assay: cells; settings: Mesocricetus auratus, DC3F
P388/0 = assay: Survival time evaluation for BDF mice bearing P388/0; settings: for survival time: individual mice
Source text: ^a Male BDF mice were inoculated with p388/0, 10E6 cells/mouse, I.P.

DC-3F hamster lung cells = assay: Cytotoxicity toward DC-3F hamster lung cells; settings: Mesocricetus auratus, DC3F
CCRF-CEM/VLB-100 cells = assay: Intracellular accumulation of [3H]vinblastine in CCRF-CEM/VLB-100 cells; type: cell-based, human; settings: 30 μM
Procedure: as §1, §2, §3, §4, §5, §6

CCRF-CEM/VBL100 cells = assay: cells; settings: Homo sapiens
P388/DX = assay: Survival time evaluation for BDF mice bearing P388/DX; settings: for survival time: individual mice
[7] = system: vinblastine-resistant CCRF-CEM cells (CCRF-CEM/VBL100); assay: Two drug combination study of vinblastine and 5-N-acetylardeemin on vinblastine-resistant CCRF-CEM, 72 hr, XTT assay; type: cell-based, human
Source text: Vinblastine-resistant CCRF-CEM Cell Line at 72-HR Exposure Time.
Based on XTT Assay. (large-scale study)

Solubility = type: physicochemical; settings: at concentrations higher than […]
P388/DX tumor = assay: Combination therapy of adriamycin & 5-N-acetyl-ardeemin or verapamil in B6D2F1 mice bearing P388/DX tumor;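 also: male BDF mice implanted intraperitoneally with P388/DX cells, 10^6 per mouse, dosed from day 1 on a QDX4, QWX2 schedule, five mice per dose group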; settings: 5NAc-Ard. 70 mg/kg
Source text: ^a Male BDF mice were inoculated P388/DX, 10^6 cells/mouse, i.p.
starting day 1, QDX4, QWX2. There were five mice at every dose and ten

[8] = system: vinblastine-resistant CCRF-CEM cells (CCRF-CEM/VBL100); assay: Two drug combination study of vinblastine and 5-N-acetylardeemin on vinblastine-resistant CCRF-CEM, 72 hr, XTT assay; type: cell-based, human; design: dose of drug at FA (drug alone): unit not given here; settings: for Dose reduction index / dose of drug at FA (drug alone): Table 3
P388/O tumor = assay: Combination therapy of adriamycin & 5-N-acetyl-ardeemin or verapamil in B6D2F1 mice bearing P388/O tumor; settings: 5NAc-Ardm 70 mg/kg;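 also: male BDF mice carrying P388/O given intraperitoneally, dosing begun on day 1 on a QDX4, QWX2 schedule, five animals per dose level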
Source text: ^a Male BDF mice were inoculated P388/O, 10^6 cells/mouse, i.p. a
starting day 1, QDX4, QWX2.

CCRF-CEM cells [9] = assay: Accumulation of VP-16 in CCRF-CEM cells preloaded with [3H]VP-16; settings: Homo sapiens, 0.5 h, read-out: increase of intracellular accumulation of VP-16
[10] = Cytotoxicity (XTT, 72 hr) in HCT116 cells; settings: human
Procedure: All drug exposures were for 72 hr and cytotoxicity was measured by XTT tetrazolium dye assay.

[11] = system: KBV-1 (vinblastine resistant) tumor cell lines; settings: in words; cited from earlier work
[12] = apparently through calcium antagonism; cited from earlier work
[13] = read-out: IC50 for inhibiting cell growth, Table 7, DC-3F/SDII

Compound: C=CC(C)(C)C12CC3c4nc5ccccc5c(=O)n4C(C)C(=O)N3C1N(C(C)=O)c1ccccc12 (centres unmarked) [5-N-Acetylardeemin]
- IC50 (P388 leukemic cells): 43.7 µM
- IC50 (CCRF-CEM cells [1]; Table 6, CCRF-CEM): 17.2 µM
- IC50 (CCRF-CEM cells [1]; human leukemic CCRF-CEM cells): 29.8 µM
- IC50 (CCRF-CEM cells [1]; read-out: IC50 of reversing agent, Table 6B, CCRF-CEM): 29.2 µM
- [3H]vinblastine accumulation (CCRF-CEM cells [2]; washed): 32.73 fmole/10^3 cells
- [3H]vinblastine accumulation (CCRF-CEM cells [2]; without wash): 37.45 fmole/10^3 cells
- IC50 (P388/DX leukemic cells): 65.9 µM
- IC50 (CCRF-CEM cells [3]): 18.8 µM
- (B)/(A) (DC-3F/ADII cells [4]; IC50 ratio DC-3F/ADII to DC-3F, * collaterally sensitive): 2.2 X
- IC50 (DC-3F/ADII cells [4]; [13]): 1590 nM
- IC50 (CCRF-CEM/VM-1 cells): 39.4 µM
- IC50 (DC-3F/ADX cells; DC3F/ADX, DC-3F/ADX): 3.69 µM
- (C)/(A) (DC-3F/ADX cells; IC50 ratio DC-3F/ADX to DC-3F, * collaterally sensitive): 0.49 X
- activation at 30 µM (CCRF-CEM cells [5]): 66%
- fold induction at 30 µM (CCRF/VM-1 cells): 1.95
- IC50 (DC-3F/ADII cells [6]; read-out: IC50 (B), DC-3F/ADII): 16.8 µM
- IC50 (DC-3F/ADII cells [6]; [13]): 1.07 µM
- % ILS (P388/0; 5N-acetylardeemin 3.33 mg/kg): -2%
- MST (P388/0; 5N-acetylardeemin 3.33 mg/kg): 7.25
- survival time (P388/0; 5N-acetylardeemin 3.33 mg/kg): 6.0 and 7.0 and 8.0
- % ILS (P388/0; 5N-acetylardeemin 10 mg/kg): -10%
- MST (P388/0; 5N-acetylardeemin 10 mg/kg): 6.67
- survival time (P388/0; 5N-acetylardeemin 10 mg/kg): 60. and 6.5 and 7.5
- % ILS (P388/0; 5N-acetylardeemin 30 mg/kg): -16%
- MST (P388/0; 5N-acetylardeemin 30 mg/kg): 6.25
- survival time (P388/0; 5N-acetylardeemin 30 mg/kg): 6.0 and 6.5
- IC50 (DC-3F hamster lung cells; read-out: IC50 (A), mean ± spread, mean of the determinations): 7.51 ± 2.58 µM
- IC50 (DC-3F hamster lung cells; read-out: IC50 for inhibiting cell growth, Table 7, DC-3F): 3.74 µM
- IC50 (DC-3F hamster lung cells; relative cytotoxicity, DC-3F): 5.06 µM
- [3H]vinblastine accumulation (CCRF-CEM/VLB-100 cells; washed): 12.78 fmole/10^3 cells
- [3H]vinblastine accumulation (CCRF-CEM/VLB-100 cells; without wash): 35.44 fmole/10^3 cells
- IC50 (CCRF-CEM/VBL100 cells; Table 6, CCRF-CEM/VBL): 6.99 µM
- IC50 (CCRF-CEM/VBL100 cells; read-out: IC50 of reversing agent, Table 6B, CCRF-CEM/VBL): 18.1 µM
- % ILS (P388/DX; 5N-acetylardeemin 3.33 mg/kg): 5%
- MST (P388/DX; 5N-acetylardeemin 3.33 mg/kg): 7.63
- survival time (P388/DX; 5N-acetylardeemin 3.33 mg/kg): 6.5 and 7.0 and 8.0 and 9.0
- % ILS (P388/DX; 5N-acetylardeemin 10 mg/kg): 2%
- MST (P388/DX; 5N-acetylardeemin 10 mg/kg): 7.42
- survival time (P388/DX; 5N-acetylardeemin 10 mg/kg): 7.0 and 7.25 and 8.0
- % ILS (P388/DX; 5N-acetylardeemin 30 mg/kg): -7%
- MST (P388/DX; 5N-acetylardeemin 30 mg/kg): 6.75
- survival time (P388/DX; 5N-acetylardeemin 30 mg/kg): 6.5 and 7.0
- dose reduction in combination ([7]; 1:2000 ratio, at 98.4% inhibition): 55 fold
- IC50 ([7]; Homo sapiens, CCRF-CEM, Table 4 (large-scale study), drug alone, read-out: Dm (median-effect concentration)): 29.8 µM
- solubility (Solubility): diminished solubility
- % ILS (P388/DX tumor): 0%
- MST (P388/DX tumor): 7.55 days
- Days survived (P388/DX tumor; individual mice 1-5): 6.5 days and 7.25 days and 8.0 days
- IC50 ([8]; Homo sapiens, CCRF-CEM, Table 3, drug alone, read-out: Dm (median-effect concentration)): 19.4 µM
- Dose reduction index ([8]; FA .9843): 55.57
- dose of drug at FA (drug alone) ([8]; FA .9843): 555.6899
- Dose reduction index ([8]; FA .9861): 61.43
- dose of drug at FA (drug alone) ([8]; FA .9861): 614.2689
- Dose reduction index ([8]; FA .9898): 79.19
- dose of drug at FA (drug alone) ([8]; FA .9898): 791.8969
- % ILS (P388/O tumor): +2%
- MST (P388/O tumor): 7.75 days
- Days survived (P388/O tumor; individual mice 1-5): 8.5 days and 7.0 days and 8.25 days and 6.5 days
- fold induction at 30 µM (CCRF-CEM cells [9]): 3.9
- MNTC at 72 h [10]: ≥ 2200 nM
- reversal of multidrug resistance [11]: one of the most potent known agents for reversal of multidrug resistance

Compound: C=CC(C)(C)[C@@]12C[C@H]3C(=O)N4[C@@H](C[C@@]5(C(C)(C)C=C)c6ccccc6N[C@@H]45)C(=O)N3[C@@H]1Nc1ccccc12 [Amauromine, amauromine]
- vasodilator activity [12]: vasodilator
